Test systems include DMS 114 small cell lung; SNB-78 CNS; LXFL 529 NSCLC; DMS 273 small cell lung; KM20L2 colon; M19-MEL melanoma; DLD-1 colon; NCI/ADR-RES ovarian; DU-145 prostate; MDA-N; BT-549 breast; MDA-MB-231 breast; T-47D breast.
What all share (assay): growth of human tumour cells (NCI), 48 h

SMILES strings stand for the structures.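 Exposure lasted 48 hours, with cells grown in 96-well plates and compounds tested at five concentrations. The concentration for 50% growth inhibition is given as GI50. At the TGI there is no net growth.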 A value given as a limit tells only on which side of the number the result lay.

From PubChem BioAssay (NCI) come the findings set out here.

For the compound `COc1cc2ccc1-c1cc(ccc1O)CC1c3cc4c(cc3CCN1C)Oc1c(OC)cc3c(c1O4)C(C2)N(C)CC3` (centres undefined), the TGI was determined as 3.48 µM in the test with DMS 114 small cell lung; 5.23 µM in the test on SNB-78 CNS; 3.23 µM with LXFL 529 NSCLC; 3.27 µM with DMS 273 small cell lung; 2.97 µM in the test with KM20L2 colon; 3.36 µM with M19-MEL melanoma. Also, in the test with DLD-1 colon, the TGI came to 5.27 µM.
With `Oc1cc(O)cc(/C=C/c2ccc(O)c(O)c2)c1`, the TGI in the test with DMS 114 small cell lung stood at 22.1 µM; in the test with SNB-78 CNS, 76.5 µM; in the test with DMS 273 small cell lung it was 38.9 µM; in the test on NCI/ADR-RES ovarian, 51 µM; in the test with KM20L2 colon it was 86.1 µM; in the test on M19-MEL melanoma it was 41.7 µM. In addition, in the test with DLD-1 colon, the TGI is greater than 31.6 µM.
Consider `CN(C)c1ccc(C2CC(=O)C(C#N)=C(c3ccccc3)NN2C)cc1` (centres undefined), for which the TGI in the test with DMS 114 small cell lung, in the test on SNB-78 CNS, in the test on LXFL 529 NSCLC and with DLD-1 colon was greater than 100 µM throughout.
Turning to `CN(C)c1ccc2nc3c(C(=O)O)cc(=O)c(O)c-3oc2c1`, the TGI with DU-145 prostate was greater than 100 µM; in the test with MDA-N, 55.5 µM; in the test on BT-549 breast, 42.8 µM; with MDA-MB-231 breast, greater than 100 µM; in the test with NCI/ADR-RES ovarian, 85.7 µM; with T-47D breast, 47.4 µM.
On to `C[n+]1cccc(/C=C/c2ccc3cccc(O)c3n2)c1`, for which the TGI with DU-145 prostate, with MDA-N, in the test with BT-549 breast, with MDA-MB-231 breast, in the test with NCI/ADR-RES ovarian and in the test with T-47D breast was greater than 100 µM each time.
In the case of `CC(C)CNc1nc(N)[nH]c(=O)c1NC=O`, the TGI in the test with DU-145 prostate, in the test on MDA-N, in the test with BT-549 breast, with MDA-MB-231 breast, in the test on NCI/ADR-RES ovarian and with T-47D breast was greater than 100 µM throughout.
As to `N=C(N)c1ccc(-c2ccc(-c3ccc(Cl)cn3)s2)cc1`, the GI50 in the test on DU-145 prostate was 1780 nM; in the test on MDA-MB-231 breast, 1580 nM. Moreover, the TGI in the test with DU-145 prostate is 3.34 µM; in the test on MDA-MB-231 breast, 3.02 µM.
As for `CCN(CC)Cc1ccc2cccnc2c1O`, the TGI with DU-145 prostate was greater than 100 µM; with MDA-N, 49.7 µM; in the test on BT-549 breast, greater than 100 µM; with MDA-MB-231 breast it was greater than 100 µM; in the test with NCI/ADR-RES ovarian it was 2.1 µM.
Regarding `Cc1cc(=O)[nH]c(NN2C(Cl)C(=O)C2c2cccc([N+](=O)[O-])c2)n1` (centres undefined), the TGI with DMS 114 small cell lung was 55.4 µM; with SNB-78 CNS, greater than 100 µM; in the test with LXFL 529 NSCLC, 29.9 µM; in the test on DMS 273 small cell lung, 31.2 µM; in the test with KM20L2 colon, greater than 100 µM; in the test on M19-MEL melanoma it was 49.1 µM.
Consider `COc1cc2c(cc1OC)C(Cl)C(c1ccc(Cl)cc1)=C2Cl` (centres undefined), for which the TGI in the test with DMS 114 small cell lung worked out at 28.6 µM; in the test with SNB-78 CNS, 58.5 µM; in the test with LXFL 529 NSCLC, 17.5 µM; in the test with DMS 273 small cell lung it was 41.6 µM; with KM20L2 colon, 39.5 µM; in the test with M19-MEL melanoma, 41.3 µM. This compound also returned a TGI in the test on DLD-1 colon of 37.8 µM.
Turning to `C[C@H]1CCC/C=C/[C@@H]2C[C@H](O)C[C@H]2[C@H](O)[C@@H](S(=O)CCN)CC(=O)O1` (some centres undefined), the GI50 is 163 nM in the test on DU-145 prostate; 50.5 nM in the test with MDA-N; 37.7 nM with BT-549 breast; 23.4 nM in the test with MDA-MB-231 breast; 0.0196 µM in the test on NCI/ADR-RES ovarian; 116 nM in the test with T-47D breast. The TGI in the test on DU-145 prostate is 0.552 µM; in the test on MDA-N, 5.5 µM; in the test on BT-549 breast it was greater than 100 µM; with MDA-MB-231 breast it was 0.0613 µM; with NCI/ADR-RES ovarian, 0.137 µM; in the test with T-47D breast, 0.544 µM.
On to `c1ccc2c[n+](CCCCCCCCCC[n+]3ccc4ccccc4c3)ccc2c1`, for which the TGI in the test on DU-145 prostate, with MDA-N, with BT-549 breast, in the test on MDA-MB-231 breast, with NCI/ADR-RES ovarian and in the test on T-47D breast was greater than 10 µM each time.
For the compound `CC[C@H](Nc1nc(N)nc(N)c1Cl)c1nc2cccc(NCc3ccc(C(=O)NO)cc3)c2c(=O)n1-c1ccccc1`, the GI50 in the test on DU-145 prostate is 2910 nM; with BT-549 breast it was 2130 nM; in the test with MDA-MB-231 breast, 1550 nM; with NCI/ADR-RES ovarian, 12.4 µM; with T-47D breast, 2150 nM. In addition, the TGI with DU-145 prostate is 10.5 µM; in the test on BT-549 breast, 5.69 µM; in the test with MDA-MB-231 breast, 3.65 µM; with NCI/ADR-RES ovarian, greater than 100 µM; in the test with T-47D breast, 10.7 µM.
Consider `O=C(O)c1ccccn1`, for which the TGI in the test with MDA-N, with BT-549 breast, in the test with MDA-MB-231 breast, with NCI/ADR-RES ovarian and in the test with T-47D breast was greater than 100 µM throughout.
`COc1cnc2c(c1)C(=O)c1c-2n(CCCN2CCNCC2)c(=O)c2cc(Cl)ccc12`: in the test on DU-145 prostate, the GI50 was 242 nM and the TGI came to 1.2 µM. Also, in the test on T-47D breast, the GI50 was 8980 nM and the TGI is 50.3 µM.
`O=C1c2ccccc2C(=O)c2c(NCCNC(=O)C3CCCN3)ccc(NCCNC(=O)C3CCCN3)c21` (centres undefined): the TGI in the test with DU-145 prostate, in the test with MDA-N, in the test on BT-549 breast, in the test on MDA-MB-231 breast, in the test with NCI/ADR-RES ovarian and in the test on T-47D breast was greater than 100 µM each time.
Regarding `CN(C)CCNC(=O)c1cccc2nc3c4ccccc4c4ccccc4c3nc12`, the TGI with DU-145 prostate is 3.2 µM; with MDA-N, 3.06 µM; with BT-549 breast, 6.25 µM; in the test on SNB-78 CNS it was 37.6 µM; with LXFL 529 NSCLC, 10.1 µM; in the test on MDA-MB-231 breast, 3.32 µM. For the same compound, the TGI was greater than 100 µM in the test on DMS 273 small cell lung; 10.3 µM with KM20L2 colon; 3.4 µM in the test on M19-MEL melanoma; 34.1 µM in the test with T-47D breast; 2.9 µM in the test with DLD-1 colon.
On to `CN(C)[C@@H]1C(=O)C(C(=O)NCNCCCC(=O)O)=C(O)[C@@]2(O)C(=O)C3=C(O)c4c(O)cccc4[C@@](C)(O)[C@H]3C[C@@H]12`, for which the TGI with DMS 114 small cell lung, with SNB-78 CNS, in the test on LXFL 529 NSCLC, in the test with DMS 273 small cell lung, in the test with KM20L2 colon and in the test on M19-MEL melanoma was greater than 100 µM in each case. The same compound registered a TGI in the test with DLD-1 colon greater than 100 µM.
